Data on 2 substances can be found in patent US6146824A, “Method for determining tumor cell adhesion” (Hadasit Medical Research Services and Development Company …, priority 1995, dated 2000).

No end group written: not given here.

Test [1] deals with MeWoLN161 (61) cells. Description: Adhesion of high metastatic human melanoma cells 61 to Th-1. The format is cell-based. Conditions: 100 μg/ml Th-1; compared with low metastatic MeWo. How it is done: (§1) Human melanoma cells established from lymph node metastases, being either MeWo cell lines representing diverse metastatic potentials, or a highly metastatic cell line originating from a melanoma patient (Nip et al., J. Clin. Invest. 90:1406-1413 (1992)) were used. High metastatic cells were selected by adhesion to lymph nodes and were designated as MeWoLN161 (also referred to as "61").
(§2) The cells were incubated with 100 μg/ml Th-1 and their adherence was determined as described above. As control, the level of adherence of the cells to BSA coated substrate was determined.

The subject of test [2] is B16-F1 cells. Kind of test: Adhesion of low metastatic B16-F1 melanoma cells to coated substrate (methylene blue uptake). Type of test: cell-based, murine. The note with it: plates coated with 10, 50 or 250 μg/well peptide or 10 μg/ml plasmin-digested thrombin; 37° C., 2 hours. On the procedure:
(§3) Confluent endothelial cells were dissociated with trypsin-EDTA solution, washed once in growth medium and resuspended in DMEM containing 0.2% bovine serum albumin (BSA). 1.3×10^5 cells/well/0.2 ml DMEM containing 0.2 BSA were added to each protein-coated well and incubated at 37° C. for 2 h. The plates were then washed three times with phosphate batter saline (PBS) and the firmly attached cells were fixed with 3% paraformaldehyde. Fixed cells were then rinsed with 0.1 M borate buffer (pH 8.5), stained for 10 mins. at 22° C. with 0.1 ml/well methylene blue (1% in 0.1 M borate buffer, pH 8.5) and washed four times in borate buffer. This procedure removed practically all non cell-bound dye. Methylene blue which was incorporated by cells was dissolved with 0.1 N HCl (0.2 ml/well) for 40 mins. at 37° C., and determined by its absorbance at 600 nm. Tissue culture plates were coated with either 10, 50 or 250 μg/well of Th-1; with 10 μg/ml of thrombin digested by incubation at 22° C. for 1 hour with plasmin (2 μg/ml); or with 0.2% BSA which served as control (CON). 0.5×10^6 cells/wells of B16-BL6 or B16-F1 cells, which are known to present in vivo high and low pulmonary colonization, respectively, were incubated at 37° C. for 2 hours with the plates coated with the substrates described above. […] The level of cell attachment was evaluated by the methylene blue uptake assay described in I(E) above. […]

The test system of test [3] is B16-BL6 cells. Kind of test: Inhibition of B16-BL6 cell adhesion to modified RGD-exposed thrombin (plasmin-digested). Type of test: cell-based, murine. On the procedure:
Fixed cells were then rinsed with 0.1 M borate buffer (pH 8.5), stained for 10 mins. at 22° C. with 0.1 ml/well methylene blue (1% in 0.1 M borate buffer, pH 8.5) and washed four times in borate buffer. This procedure removed practically all non cell-bound dye. Methylene blue which was incorporated by cells was dissolved with 0.1 N HCl (0.2 ml/well) for 40 mins. at 37° C., and determined by its absorbance at 600 nm. 10 μg/ml of thrombin was digested with 2 μg/ml plasmin by incubation in 22° C. for 1 hour. Tissue culture plates were coated with digested […] by incubation at 4° C. for 2 hours. 1×10^6 B16-BL6 cells were incubated, at 22° C. for 30 mins. with increasing concentrations of Th-1 peptide (20-300 μg) prior to attachment to treated tissue culture plates by incubation at 37° C. for 2 hours. The attached cells were washed 3 times with PBS and fix with 3% formaldehyde. The level of attachment was evaluated by the methylene blue uptake assay described in I(E) above.

The test system of test [4] is rat aorta rings.
Protocol: Type 1 collagen is prepared from the tail tendons of adult Sprague-Dawley rats. Briefly, the collagen fibers are solubilized by a slow stirring for. 48 hours at 4° C. in a sterile, 1/1000 (v/v) acetic acid solution (300 ml for 1 gr. of collagen). The resulting solution is filtered through a sterile triple gause and centrifuged at 16,000 gr for 1 hour at 4° C. The collagen matrix gel is obtained by simultaneously raising the pH and ionic strength of the collagen solution. For this purpose, seven vols. of collagen solution was quickly mixed with 1 vol. of 10×Minimum Essential Medium and 2 vols. of sodium bicarbonate (0.15 M).
Thoratic aortas are obtained from 1-2 month old SD rats sacrificed by decapitation. The aortas are immediately transferred to a Petri dish with PBS. The fibroadipose tissue around the aorta is carefully removed under a dissecting microscope and 1 mm long aortic rings are sectioned and extensively rinsed with PBS.
The collagen solution (0.2 ml) is added to each of 16 mm well and gellation was allowed for 15 mins. at 37° C. The aorta ring is transferred and positioned to the center of the gel and another 0.4 ml of the collagen solution is carefully poured on top of the ring. After the gel is formed, 0.4 ml of Serum-free Endothelial Growth Medium is added and changed every other day.
In this system, the rings of aorta are cultured in a three-dimensional gel of collagen sprouts to microvessel.
For test [5], the system named is MIM/8 cells. Description: Adhesion of high metastatic human melanoma cells MIM/8 to Th-1. Type of test: cell-based. Conditions: 100 μg/ml Th-1; compared with low metastatic MeWo. How it is done: as §1, §2
For test [6], the system named is B16-BL6 murine melanoma cells. Kind of test: Inhibition of lung colonization of co-injected B16-BL6 melanoma cells in C57BL/6 mice. The format is in vivo. On the procedure: 1×10^5 cells/0.2 ml/mouse B16-BL6 cells were injected into the lateral tail vein of unanesthetized C57BL/6 mice. The mice were monitored on a daily basis and sacrificed 2 weeks later by cervical dislocation. The animals were necropsied, and the lungs were removed, washed in water, and fixed in Bouin's solution (containing saturated solution of picric acid, 2% glacial acetic acid and 3% formaldehyde). The number of lung nodules was determined under a dissecting microscope.
B16-BL6 cell monolayers in culture were detached for 2 mins. with 0.02% EDTA and resuspended gently to 1×10^5 cells/0.2 ml DMEM. 0.5 mg/1×10^5 cells/0.2 ml of Th-1 was preincubated, at 37° C. for 30 mins, with a half of the cells' cultures prior to injecting mice. A single cell suspension (1×10^5 cells/0.2 ml/mouse), comprising either Th-1 treated or Th-1 untreated melanoma cells was injected slowly into the lateral tail vein of C57BL/6 mice.
Fourteen days after injection, the mice were sacrificed, and their lungs were excised and fixed with 10% formaldehyde and stained with saturated picric acid. The number of surface melanoma colonies was counted visually or with the aid of a dissecting microscope.

The subject of test [7] is B16-BL6 cells. Kind of test: Adhesion of high metastatic B16-BL6 melanoma cells to coated substrate (methylene blue uptake). Type of test: cell-based, murine. Conditions: plates coated with 10, 50 or 250 μg/well peptide or 10 μg/ml plasmin-digested thrombin; 37° C., 2 hours. On the procedure:
as §3

For test [8], the system named is rat-aorta ring. Description: Apoptosis in rat aorta ring by TUNEL nuclei staining. Type of test: cell-based. How it is done:
Apoptosis, or programmed cell death, can be evaluated by DNA fragmentation using a technique based on terminal deoxynucleotidyl transferase (TdT) reactivity with DNA breaks. This histochemical staining was based on the original "TUNEL" method (Gavrieli, et al., J. Cell Biol. 119:493-501 (1992)). Tissue was fixed in buffered formalin; after deparaffinization and hydration, the slide was quenched with H2 O2, in methanol. In order to strip the nuclear proteins, the tissue was preincubated in Tris-HCl and then incubated with proteinase K (20 μg/ml) for 15 minutes and washed. DNA fragments are elongated and labeled with biotinylated poly dUTP, introduced by terminal deoxynucleotidyl transferase. Finally, bound biotin is stained by avidin conjugated peroxidase, developed with nickle-enhanced diaminobenzidine. For positive control (FIG. 12, E) staining serves a preparation that was exposed to DNase digestion (according to Gavieli, et al., supra). […] It is important to emphasize that the RGD derived peptide-Th-1, is capable of inducing in addition to inhibition of micro-vessel sprout formation, cellular signaling of programmed cell death, indicating a possible explanation for the mechanism by which angiogenesis is prevented by Th-1.

Test [9] has as its system melanoma cells. Conditions: Humphries et al. (1988); cited from earlier work.

As for “AGYKPDEGKRGDAC [Th-1, I.D. No. 2, residues 178-191 of native thrombin]”, in [1], the “adherence of 61 cells to Th-1 compared to BSA control” value was “significantly higher level of adherence”. In addition, the “adhesion of B16-F1 cells to the substrate” value in test [2] is “low relatively dose independent adhesion level”. The “concentration at which inhibition of adhesion to modified RGD-exposed thrombin was already obtained” value in test [3] (B16-BL6 cells) is 16 µM. Moreover, in test [3] (cells preincubated with 20-300 μg peptide, 22° C., 30 mins), the “inhibition of adhesion of B16-BL6 cells to modified RGD-exposed thrombin” value is recorded as “inhibited, in a dose depended manner”. Moreover, in test [4], the “concentration giving 50% inhibition of explant formation” value was around 50 µg/mL and the “concentration giving complete inhibition” value fell in the range of 100 to 250 µg/mL. In addition, the “inhibition of angiogenesis in aorta rings” value in test [4] (100 μg/ml, vs peptide of similar size without RGD-site) is “able to inhibit angiogenesis”. Also, the “microvessel formation after longer incubation then washout” value in test [4] (150 μg/ml for 6 days, then fresh medium) is recorded as “further increased inhibition”. The “microvessel formation with peptide constantly present” value in [4] (150 μg/ml, up to 14 days) is “complete inhibition”. For the same substance, the “inhibition in sprout formation of the microvessel” value in [4] (10-250 μg/ml) is given as “dose dependent inhibition”. Also, the “adherence of MIM/8 cells to Th-1 compared to BSA control” value in test [5] is given as “significantly higher level of adherence”. The “inhibition of lung colonization” value in test [6] (0.5 mg peptide/mouse, co-injected i.v. with B16-BL6 cells, 14 days) is on record as “Over 90%”. Moreover, the “effect on melanotic colonies in the lungs” value in [6] (co-injection with B16-BL6 cells, 14 days after injection, vs B16-BL6 alone) was “marked reduction of melanotic colonies”. In test [6] (vs GRGDS of prior art), the “potency in inhibiting metastasis of melanoma cells relative to GRGDS peptide” value is listed as “about 20 fold”. Also, in test [7], the “adhesion of B16-BL6 cells to the substrate” value was “high, dose dependent adhesion”. Further, the “concentration giving maximal induction of apoptosis” value in test [8] came out at 250 µg/mL. Further, in [8] (10-250 μg/ml), the “apoptosis (nuclei staining, TUNEL)” value was “dose dependent manner”.

Regarding GRGDS, the “concentration at which inhibition of metastasis was evident” value in test [9] is listed as 3 mg/mouse.
